Test results as given in patent publication US20210094955A1, “SALT AND CRYSTAL OF TRIAZOLOPYRAZINE DERIVATIVE” (priority 2017, published 2021).
≈ marks a conversion by molar mass, not a printed value.

What was measured:
[1] = Solubility test, Test Method 1 (sample approx. 150 μg/mL, shaken 10 minutes at room temperature, filtrate quantified by HPLC); format: physicochemical; details: approx. 150 μg/mL added, in terms of free form
Description: Test Method of Free Form, Hydrochloride, Hydrobromide, Sulfate, Methanesulfonate, and Benzenesulfonate […] In order to uniformly disperse the sample in the dissolving solution, the sample was irradiated with ultrasonic waves in a water tank for a short time, and then vigorously shaken at room temperature for 10 minutes using a shaker SA-31 manufactured by Yamato Scientific Co., Ltd. The solution after shaken was filtered with a filter, and a concentrations of the compound in filtrate was quantified by HPLC. The following was used as the dissolving solution. […] JP2 (Japanese Pharmacopoeia 2nd Fluid for disintegration test): manufactured by Nacalai Tesque Inc. JP2+TC: Add sodium taurocholate to Japanese Pharmacopoeia 2nd Fluid for disintegration test to obtain a concentration of 15 mM. FaSSIF (artificial intestinal fluid (fasted state)): […] FeSSIF (artificial intestinal fluid (fed state)): […] Measurement conditions of free form, hydrochloride, hydrobromide, sulfate, methanesulfonate, and benzenesulfonate) Equipment: LC-1260 manufactured by Agilent Technologies Mobile phase: A: 0.01 M aqueous solution of ammonium acetate, B: 0.01 M methanol solution of ammonium acetate Flow rate: 0.3 mL/min Column: Develosil Combi-RP-5 5 μm (2.0 mm×50 mm) Column temperature: 40° C. […] Ex indicates Example Number to be described later.

[2] = Solubility test, Test Method 2 (sample approx. 300 μg/mL, shaken 10 minutes at room temperature, filtrate quantified by HPLC); format: physicochemical; details: approx. 300 μg/mL added, in terms of free form
Description: JP1 (Japanese Pharmacopoeia 1st Fluid for disintegration test): manufactured by Nacalai Tesque Inc.
JP2 (Japanese Pharmacopoeia 2nd Fluid for disintegration test): manufactured by Nacalai Tesque Inc.
JP2+TC: Add sodium taurocholate to Japanese Pharmacopoeia 2nd Fluid for disintegration test to obtain a concentration of 15 mM.
FaSSIF (artificial intestinal fluid (fasted state)): To 1 L of water, 3 mmol of sodium taurocholate, 0.75 mmol of lecithin, 3.9 g of potassium dihydrogen phosphate, and 7.7 g of potassium chloride are added, and a pH thereof is adjusted to approximately 6.5 using sodium hydroxide.
FeSSIF (artificial intestinal fluid (fed state)): To 1 L of water, 15 mmol of sodium taurocholate, 3.75 mmol of lecithin, 8.65 g of acetic acid, and 15.2 g of potassium chloride are added, and a pH is adjusted to approximately 5.0 using sodium hydroxide.
Test Method 2: Test Method for p-Toluenesulfonate and 1-Hydroxy-2-Naphthoate
Into a 10 mL centrifuge tube, 1 to 1.3 mg of a sample was weighed, and each dissolving solution (see below) was added thereto to be approximately 300 μg/mL. In order to uniformly disperse the sample in the dissolving solution, the sample was irradiated with ultrasonic waves in a water tank for a short time, and then vigorously shaken at room temperature for 10 minutes using a shaker SA-31 manufactured by Yamato Scientific Co., Ltd. The solution after shaken was filtered with a filter, and a concentration of the compound in filtrate was quantified by HPLC. The same dissolving solution as in Test Method 1 was used.
(Measurement condition 2 using HPLC: Measurement conditions of p-toluenesulfonate and 1-hydroxy-2-naphthoate)
Equipment: LC-1260 manufactured by Agilent Technologies
Mobile phase: A: 0.1% aqueous perchloric acid, B: methanol
Column: YMC-Triart C18 S-3 μm (2.0 mm×50 mm)
Column temperature: 40° C.
Detection wavelength: 254 nm
Ex indicates Example Number to be described later.

[3] = pH 1.2, simulated gastric fluid, thermodynamic from solid, JP1 (Japanese Pharmacopoeia 1st Fluid for disintegration test), 10 minutes shaking, read-out: Solubility JP1
[4] = pH 5, thermodynamic from solid, FeSSIF (artificial intestinal fluid, fed state), pH approx. 5.0, 10 minutes shaking, read-out: Solubility FeSSIF
[5] = pH 6.5, thermodynamic from solid, FaSSIF (artificial intestinal fluid, fasted state), pH approx. 6.5, 10 minutes shaking, read-out: Solubility FaSSIF
[6] = pH 6.8, aqueous buffer, thermodynamic from solid, JP2 (Japanese Pharmacopoeia 2nd Fluid for disintegration test), 10 minutes shaking, read-out: Solubility JP2
[7] = pH 6.8, fassgf or other biorelevant, thermodynamic from solid, JP2 with 15 mM sodium taurocholate, 10 minutes shaking, read-out: Solubility JP2 + TC

Compound	solubility at 10 min [1, 3]	solubility at 10 min [1, 4]	solubility at 10 min [1, 5]	solubility at 10 min [1, 6]	solubility at 10 min [1, 7]	further results
Cc1nsc(-c2nnc3n2CCN(C(=O)c2ccc(F)cc2)[C@@H]3C)n1 [Compound A, (4-fluorophenyl)[(8R)-8-methyl-3-(3-methyl-1,2,4-thiadiazol-5-yl)-5,6-dihydro[1,2,4]triazolo[4,3-a]pyrazin-7(8H)-yl]methanone, reference compound]	66.6 µg/mL (≈ 186 µM)	31.9 µg/mL (≈ 89 µM)	36.5 µg/mL (≈ 102 µM)	65.4 µg/mL (≈ 182 µM)	82.9 µg/mL	–
Cc1nsc(-c2nnc3n2CCN(C(=O)c2ccc(F)cc2)[C@@H]3C)n1.Cl [Example 1, (4-fluorophenyl)[(8R)-8-methyl-3-(3-methyl-1,2,4-thiadiazol-5-yl)-5,6-dihydro[1,2,4]triazolo[4,3-a]pyrazin-7(8H)-yl]methanone hydrochloride]	> 100 µg/mL	> 100 µg/mL	> 100 µg/mL	> 100 µg/mL	> 100 µg/mL	–
Br.Cc1nsc(-c2nnc3n2CCN(C(=O)c2ccc(F)cc2)[C@@H]3C)n1 [Example 2, (4-fluorophenyl)[(8R)-8-methyl-3-(3-methyl-1,2,4-thiadiazol-5-yl)-5,6-dihydro[1,2,4]triazolo[4,3-a]pyrazin-7(8H)-yl]methanone hydrobromide]	> 100 µg/mL	> 100 µg/mL	> 100 µg/mL	> 100 µg/mL	> 100 µg/mL	–
Cc1nsc(-c2nnc3n2CCN(C(=O)c2ccc(F)cc2)[C@@H]3C)n1.O=S(=O)(O)O [Example 3, (4-fluorophenyl)[(8R)-8-methyl-3-(3-methyl-1,2,4-thiadiazol-5-yl)-5,6-dihydro[1,2,4]triazolo[4,3-a]pyrazin-7(8H)-yl]methanone sulfate]	> 100 µg/mL	> 100 µg/mL	> 100 µg/mL	> 100 µg/mL	> 100 µg/mL	–
Cc1ccc(S(=O)(=O)O)cc1.Cc1nsc(-c2nnc3n2CCN(C(=O)c2ccc(F)cc2)[C@@H]3C)n1 [Example 5, (4-fluorophenyl)[(8R)-8-methyl-3-(3-methyl-1,2,4-thiadiazol-5-yl)-5,6-dihydro[1,2,4]triazolo[4,3-a]pyrazin-7(8H)-yl]methanone p-toluenesulfonate]	–	–	–	–	–	solubility at 10 min [2, 3]: > 100 µg/mL; solubility at 10 min [2, 4]: > 100 µg/mL; solubility at 10 min [2, 5]: > 100 µg/mL; solubility at 10 min ([2]; pH 6.8, fassgf or other biorelevant, thermodynamic from solid, JP2 (Japanese Pharmacopoeia 2nd Fluid for disintegration test), 10 minutes shaking, read-out: Solubility JP2): > 100 µg/mL; solubility at 10 min [2, 7]: > 100 µg/mL
CS(=O)(=O)O.Cc1nsc(-c2nnc3n2CCN(C(=O)c2ccc(F)cc2)[C@@H]3C)n1 [Example 6, (4-fluorophenyl)[(8R)-8-methyl-3-(3-methyl-1,2,4-thiadiazol-5-yl)-5,6-dihydro[1,2,4]triazolo[4,3-a]pyrazin-7(8H)-yl]methanone methanesulfonate]	> 100 µg/mL	> 100 µg/mL	> 100 µg/mL	> 100 µg/mL	> 100 µg/mL	–
Cc1nsc(-c2nnc3n2CCN(C(=O)c2ccc(F)cc2)[C@@H]3C)n1.O=S(=O)(O)c1ccccc1 [Example 7, (4-fluorophenyl)[(8R)-8-methyl-3-(3-methyl-1,2,4-thiadiazol-5-yl)-5,6-dihydro[1,2,4]triazolo[4,3-a]pyrazin-7(8H)-yl]methanone benzenesulfonate]	> 100 µg/mL	> 100 µg/mL	> 100 µg/mL	> 100 µg/mL	> 100 µg/mL	–
Cc1nsc(-c2nnc3n2CCN(C(=O)c2ccc(F)cc2)[C@@H]3C)n1.O=C(O)c1ccc2ccccc2c1O [Example 8, (4-fluorophenyl)[(8R)-8-methyl-3-(3-methyl-1,2,4-thiadiazol-5-yl)-5,6-dihydro[1,2,4]triazolo[4,3-a]pyrazin-7(8H)-yl]methanone 1-hydroxy-2-naphthoate]	–	–	–	–	–	Solubility FaSSIF ([2]; FaSSIF (artificial intestinal fluid, fasted state), pH approx. 6.5, 10 minutes shaking): >100 µg/mL; Solubility FeSSIF ([2]; FeSSIF (artificial intestinal fluid, fed state), pH approx. 5.0, 10 minutes shaking): >100 µg/mL; Solubility JP1 ([2]; JP1 (Japanese Pharmacopoeia 1st Fluid for disintegration test), 10 minutes shaking): 58.9 µg/mL; Solubility JP2 ([2]; JP2 (Japanese Pharmacopoeia 2nd Fluid for disintegration test), 10 minutes shaking): >100 µg/mL; Solubility JP2 + TC ([2]; JP2 with 15 mM sodium taurocholate, 10 minutes shaking): >100 µg/mL
